The subject of this assay is OMP25–msGFP–HaloTag fusion protein in HEK293T cells. Briefly: Pulse–chase HaloTag labeling efficiency, SDS–PAGE/in-gel fluorescence. In kind it is cell-based. The settings on record: 2 h, mean ± SEM. The procedure:
PBS, 2% (v/v) SDS, 1% (v/v) Triton x-100, 10 mM EDTA, and protease inhibitors (2 mM PMSF, aprotinin, leupeptin, and pepstatin A). Samples were then incubated at 50 °C for 3–4 min after the addition of Laemmli sample buffer (SB; Bio-Rad, 1610747) with β-mercaptoethanol (Bio-Rad, 1610710). For protein detection, 10–20 µL of the sample was subjected to SDS-PAGE, using 10% Tris-Glycine gels (TGX) (Bio-Rad, 5671034) with Tris-Glycine buffer (Bio-Rad, 1610732). […]
Quantification of HaloTag labeling efficiency using in-gel fluorescence. HEK293T cells were cultured, incubated and transfected with pF(UG) hSyn HaloTag-TEV-4×GS-msGFP-mito using lipofectamine LTX reagent as described above. To examine saturation of HaloTag, we screened for fluorescence plateau using 1 μM of JF479-HaloTag ligand,4 JF549-HaloTag ligand (2HTL) and […]
(2HTL) and JF608-HaloTag ligand (3HTL) reached a fluorescence plateau, and they were chosen as saturating counter stains or “chase” dyes for examining the labeling efficiency of biotin-JF-HaloTag ligands (13HTL–16HTL). Next, we developed an in-gel assay to independently quantitate labeling efficiencies of 13HTL–16HTL. We used JF549-HaloTag ligand (2HTL) as chase for evaluating biotin-JF608-HaloTag ligand (14HTL), biotin-JF646-HaloTag ligand (15HTL), and biotin-JF635-HaloTag ligand (16HTL). We used JF608-HaloTag ligand (3HTL) as chase for evaluating biotin-JF549-HaloTag ligand (13HTL). Each experiment consisted of testing the biotin variants 13HTL–16HTL at 100 nM and 1 μM with an incubation time of 2 h and a chase labeling incubation of 1 μM for 0.5 h. The 0.5 h chase labeling period was included with the 2 h total incubation. Each experiment consisted of the following conditions: untransfected cells; (A) transduced, but no dye; (B) non-biotinylated variant of primary label at 1 μM for 0.5 h; (C) the nonbiotinylated version of the chase JF dye at 1 μM for 0.5 h; (D) 100 nM of the nonbiotinylated version of the primary label for 2 h; (E) 100 nM of the biotinylated version of primary label for 2 h; (F) 1 μM of the nonbiotinylated version of the primary label for 2 h; (G) 1 μM of the biotinylated version of primary label for 2 h; and (H) 1 μM of the non-biotinylated version of the chase JF dye at 1 μM for 2 h. This last condition H was the same as condition C but with a longer incubation (2 h vs. 0.5 h) to allow independent verification of the chase saturation using 0.5 h incubation. Samples D–G were incubated with a nonbiotinylated chase dye at 1 μM for 0.5 h. Cells were washed and protein lysates were harvested using Bio-Rad SDS-PAGE products as described above. Specifically, cells were lysed using protein lysis buffer as described above, and adding XT Sample Buffer (Bio-Rad, 1610791) and XT Reducing Agent (Bio-Rad, 1610792). Samples were heated at 72 °C for 5 min. Samples were then loaded onto a 4–12% Criterion XT Bis-Tris gel (Bio-Rad, 3450124) and ran at 150 V for approximately 1 h. Gels were then imaged on a Chemidoc MP imager (Bio-Rad) using orange, red, and far-red filters. Bands representing HaloTag ligand were quantified by densitometry using […]
labeling efficiency calculations, bands representing saturating chase dye fluorescence (e.g., JF549) were compared to saturating primary dye fluorescence allowing estimation of the amount of […]
Where F is the fraction of HaloTag protein labeled, Ce is the experimental chase dye fluorescence signal after incubation with pulse biotin-JF-HaloTag ligand, and Cs is the saturating chase dye fluorescence without incubation with a pulse ligand.
Neuro2a cell culture, labeling, lattice light sheet microscopy (LLSM), and confocal microscopy. Neuro2a cells (ATCC, CCL-131) were cultured in Eagle's minimum essential medium (MEM, phenol red-free; Life Technologies) supplemented with 10% (v/v) fetal bovine serum (FBS), and maintained at 37 °C in a humidified 5% (v/v) CO2 environment. Cells were transiently transfected using nucleofection (Lonza) with plasmids constitutively expressing

For the molecule `O=C(CCCCC1SCC2NC(=O)NC21)NCCOCCOCCNC(=O)C1C[N+](=c2ccc3c(-c4cc(C(=O)NCCOCCOCCCCCCCl)ccc4C(=O)[O-])c4ccc(N5CCC5)cc4oc-3c2)C1` (centres unmarked) [13HTL, biotin–JF549–HaloTag ligand], the labeling efficiency is less than 3% (100 nM pulse) and less than 3% (1 µM pulse).
For the molecule `CC1(C)C2=CC(=[N+]3CC(C(=O)NCCOCCOCCNC(=O)CCCC[C@@H]4SC[C@@H]5NC(=O)N[C@@H]54)C3)C=CC2=C(c2cc(C(=O)NCCOCCOCCCCCCCl)ccc2C(=O)[O-])c2ccc(N3CCC3)cc21` (some centres unmarked) [14HTL, biotin–JF608–HaloTag ligand], the labeling efficiency reads like this: (100 nM pulse) 11.3 ± 6.4%; (1 µM pulse) 57.7 ± 9.6%.
For `C[Si]1(C)C2=CC(=[N+]3CC(C(=O)NCCOCCOCCNC(=O)CCCC[C@@H]4SC[C@@H]5NC(=O)N[C@@H]54)C3)C=CC2=C(c2cc(C(=O)NCCOCCOCCCCCCCl)ccc2C(=O)[O-])c2ccc(N3CCC3)cc21` (some centres unmarked) [15HTL, biotin–JF646–HaloTag ligand], in that order: 13.6 ± 3.7% and 61.7 ± 6.8%.
For `C[Si]1(C)C2=CC(=[N+]3CC(F)(C(=O)NCCOCCOCCNC(=O)CCCC[C@@H]4SC[C@@H]5NC(=O)N[C@@H]54)C3)C=CC2=C(c2cc(C(=O)NCCOCCOCCCCCCCl)ccc2C(=O)[O-])c2ccc(N3CC(F)C3)cc21` (some centres unmarked) [16HTL, biotin–JF635–HaloTag ligand], in that order: 18.0 ± 4.9% and 69.0 ± 4.2%.

The record behind these values is publication PMC12595484, “Optimizing multifunctional fluorescent ligands for intracellular labeling” (Proceedings of the National Academy of Sciences of the …, 2025).
